In ChEMBL document CHEMBL1149783, “New stereoselective titanium reductive amination synthesis of 3-amino and polyaminosterol derivatives possessing antimicrobial activities” (2008):
In brackets after ≈: the same amount, converted by molar mass.

How the values were obtained:
Type in all cases: functional
Staphylococcus aureus = assay: Antibacterial activity against Staphylococcus aureus CIP 4.83 by broth microdilution method
Enterococcus faecalis = assay: Antibacterial activity against Enterococcus faecalis CIP 103015 by broth microdilution method
Escherichia coli = assay: Antibacterial activity against Escherichia coli CIP 54127 by broth microdilution method
Saccharomyces cerevisiae = assay: Antifungal activity against Saccharomyces cerevisiae CIP 28383 by broth microdilution method
Candida albicans = assay: Antifungal activity against Candida albicans CIP 1180-79 by broth microdilution method

Row | MIC (Staphylococcus aureus) [µg/mL] | MIC (Enterococcus faecalis) [µg/mL] | MIC (Escherichia coli) [µg/mL] | MIC (Saccharomyces cerevisiae) [µg/mL] | MIC (Candida albicans) [µg/mL] | SMILES
1 | 1.56 (≈ 3.9 µM) | 25 (≈ 62.5 µM) | > 50 | 12.5 (≈ 31.3 µM) | 12.5 (≈ 31.3 µM) | CN[C@@H]1C=C2CC[C@H]3[C@@H]4CC[C@H]([C@H](C)CCCC(C)C)[C@@]4(C)CC[C@@H]3[C@@]2(C)CC1
2 | > 50 | > 50 | > 50 | > 50 | > 50 | CC(C)CCC[C@@H](C)[C@H]1CC[C@H]2[C@@H]3CCC4=C[C@@H](NCCCCCCCCN)CC[C@]4(C)[C@H]3CC[C@]12C
3 | 12.5 (≈ 29 µM) | > 50 | > 50 | 50 (≈ 116 µM) | > 50 | CC(C)CCC[C@@H](C)[C@H]1CC[C@H]2[C@@H]3CC[C@H]4C[C@@H](NCCN)CC[C@]4(C)[C@H]3CC[C@]12C
4 | 6.25 (≈ 10.9 µM) | > 50 | > 50 | > 50 | > 50 | CC(C)CCC[C@@H](C)[C@H]1CC[C@H]2[C@@H]3CC=C4C[C@@H](NCCCNCCCCNCCCN)CC[C@]4(C)[C@H]3CC[C@]12C
5 | > 50 | > 50 | > 50 | > 50 | > 50 | CC(C)CCC[C@@H](C)[C@H]1CC[C@H]2[C@@H]3CCC4=C[C@@H](NCCCCCCCCCCCCN)CC[C@]4(C)[C@H]3CC[C@]12C
6 | > 50 | > 50 | > 50 | > 50 | > 50 | CC(C)CCC[C@@H](C)[C@H]1CC[C@H]2[C@@H]3CC[C@H]4C[C@@H](NCCCCCCN)CC[C@]4(C)[C@H]3CC[C@]12C
7 | > 50 | > 50 | > 50 | > 50 | > 50 | CC(C)CCC[C@@H](C)[C@H]1CC[C@H]2[C@@H]3CC[C@H]4C[C@@H](NCCCN)CC[C@]4(C)[C@H]3CC[C@]12C
8 | 6.25 (≈ 13.3 µM) | 6.25 (≈ 13.3 µM) | > 50 | > 50 | > 50 | CC(C)CCC[C@@H](C)[C@H]1CC[C@H]2[C@@H]3CCC4=C[C@@H](NCCCCCN)CC[C@]4(C)[C@H]3CC[C@]12C
9 | 1 |  | 4 |  | 4 | CC(C)[C@@H](CC[C@@H](C)[C@H]1CC[C@H]2[C@@H]3[C@H](O)C[C@H]4C[C@@H](NCCCNCCCCNCCCN)CC[C@]4(C)[C@H]3CC[C@]12C)OS(=O)(=O)O.Cl.Cl.Cl.Cl [TRODUSQUEMINE HYDROCHLORIDE]
10 | 3.12 (≈ 5.45 µM) | 12.5 (≈ 21.8 µM) | > 50 | 6.25 (≈ 10.9 µM) | 50 (≈ 87.3 µM) | CC(C)CCCC(C)C1CCC2C3CCC4CC(NCCCNCCCCNCCCN)CCC4(C)C3CCC12C (stereo not drawn)
11 | 12.5 (≈ 29.2 µM) | > 50 | > 50 | > 50 | > 50 | CC(C)CCC[C@@H](C)[C@H]1CC[C@H]2[C@@H]3CCC4=C[C@@H](NCCN)CC[C@]4(C)[C@H]3CC[C@]12C
12 | 6.25 (≈ 10.9 µM) | > 50 | 50 (≈ 87.6 µM) | > 50 | 50 (≈ 87.6 µM) | CC(C)CCC[C@@H](C)[C@H]1CC[C@H]2[C@@H]3CCC4=C[C@@H](NCCCNCCCCNCCCN)CC[C@]4(C)[C@H]3CC[C@]12C
13 | 6.25 (≈ 13.2 µM) | 50 (≈ 106 µM) | > 50 | 25 (≈ 52.9 µM) | 50 (≈ 106 µM) | CC(C)CCC[C@@H](C)[C@H]1CC[C@H]2[C@@H]3CC[C@H]4C[C@@H](NCCCCCN)CC[C@]4(C)[C@H]3CC[C@]12C
14 | 1.56 (≈ 3.42 µM) | 6.25 (≈ 13.7 µM) | 6.25 (≈ 13.7 µM) | > 50 | > 50 | CC(C)CCC[C@@H](C)[C@H]1CC[C@H]2[C@@H]3CC=C4C[C@@H](NCCCCN)CC[C@]4(C)[C@H]3CC[C@]12C
15 | 12.5 (≈ 27.2 µM) | > 50 | > 50 | 50 (≈ 109 µM) | 25 (≈ 54.5 µM) | CC(C)CCC[C@@H](C)[C@H]1CC[C@H]2[C@@H]3CC[C@H]4C[C@@H](NCCCCN)CC[C@]4(C)[C@H]3CC[C@]12C
16 | > 50 | > 50 | > 50 | > 50 | > 50 | CC(C)CCC[C@@H](C)[C@H]1CC[C@H]2[C@@H]3CCC4=C[C@@H](NCCCCCCCCCN)CC[C@]4(C)[C@H]3CC[C@]12C
17 | 6.25 (≈ 14.1 µM) | 6.25 (≈ 14.1 µM) | 6.25 (≈ 14.1 µM) | > 50 | > 50 | CC(C)CCC[C@@H](C)[C@H]1CC[C@H]2[C@@H]3CC=C4C[C@@H](NCCCN)CC[C@]4(C)[C@H]3CC[C@]12C
18 | 6.25 (≈ 13.7 µM) | 6.25 (≈ 13.7 µM) | 25 (≈ 54.7 µM) | 12.5 (≈ 27.4 µM) | 6.25 (≈ 13.7 µM) | CC(C)CCC[C@@H](C)[C@H]1CC[C@H]2[C@@H]3CCC4=C[C@@H](NCCCCN)CC[C@]4(C)[C@H]3CC[C@]12C
19 | 6.25 (≈ 15.6 µM) | 6.25 (≈ 15.6 µM) | > 50 | 3.12 (≈ 7.82 µM) | > 50 | CN[C@H]1CC[C@@]2(C)C(=CC[C@H]3[C@@H]4CC[C@H]([C@H](C)CCCC(C)C)[C@@]4(C)CC[C@@H]32)C1
20 | > 50 | > 50 | > 50 | > 50 | > 50 | CC(C)CCC[C@@H](C)[C@H]1CC[C@H]2[C@@H]3CCC4=C[C@@H](NCCCCCCCCCCN)CC[C@]4(C)[C@H]3CC[C@]12C
21 | > 50 | 50 (≈ 129 µM) | > 50 | > 50 | 50 (≈ 129 µM) | CC(C)CCCC(C)C1CCC2C3CCC4CC(N)CCC4(C)C3CCC12C (stereo not drawn)
22 | > 50 | > 50 | > 50 | > 50 | > 50 | CC(C)CCC[C@@H](C)[C@H]1CC[C@H]2[C@@H]3CCC4=C[C@@H](NCCCCCCN)CC[C@]4(C)[C@H]3CC[C@]12C
23 | 6.25 (≈ 15.6 µM) | 6.25 (≈ 15.6 µM) | > 50 | 12.5 (≈ 31.1 µM) | 12.5 (≈ 31.1 µM) | CNC1CCC2(C)C(CCC3C2CCC2(C)C(C(C)CCCC(C)C)CCC32)C1 (stereo not drawn)
24 | 12.5 (≈ 28.2 µM) | > 50 | > 50 | > 50 | 25 (≈ 56.5 µM) | CC(C)CCC[C@@H](C)[C@H]1CC[C@H]2[C@@H]3CCC4=C[C@@H](NCCCN)CC[C@]4(C)[C@H]3CC[C@]12C
25 | 12.5 (≈ 29.2 µM) | 25 (≈ 58.3 µM) | 12.5 (≈ 29.2 µM) | > 50 | > 50 | CC(C)CCC[C@@H](C)[C@H]1CC[C@H]2[C@@H]3CC=C4C[C@@H](NCCN)CC[C@]4(C)[C@H]3CC[C@]12C
26 | > 50 | > 50 | > 50 | > 50 | > 50 | CC(C)CCC[C@@H](C)[C@H]1CC[C@H]2[C@@H]3CCC4=C[C@@H](NCCCCCCCN)CC[C@]4(C)[C@H]3CC[C@]12C
27 | > 50 | > 50 | > 50 | > 50 | > 50 | CC(C)CCCC(C)C1CCC2C3CCC4CC(NCCCCCCCN)CCC4(C)C3CCC12C (stereo not drawn)
